Values after ≈ are worked out from the molar mass of the structure shown. Read-outs that look alike come from different tables or passages of the source. Non-standard residues stand in square brackets, D forms with d. Residues, ends and D or L forms follow the SMILES beside them. *: point of attachment. Pentanoyl(5-NH-cholesteryl) = CC(C)CCC[C@@H](C)[C@H]1CC[C@H]2[C@@H]3CC=C4C[C@@H](NCCCCC(=O)*)CC[C@]4(C)[C@H]3CC[C@]12C; Cholesteryloxycarbonyl = CC(C)CCC[C@@H](C)[C@H]1CC[C@H]2[C@@H]3CC=C4C[C@@H](OC(=O)*)CC[C@]4(C)[C@H]3CC[C@]12C; Palmitoyl = CCCCCCCCCCCCCCCC(=O)*; PEG3 = NCCOCCOCCOCCC(=O)O; Pra = C#CC[C@H](N)C(=O)O; Aib = CC(C)(N)C(=O)O; Ahx = NCCCCCC(=O)O; Ava = NCCCCC(=O)O; βAla = NCCC(=O)O A value given as a limit tells only on which side of the number the result lay.

In series [1] the test system is endosomes of Jurkat lymphocytes. As to the kind of experiment: Endosome disruption in Jurkat lymphocytes: release of carboxyfluorescein from disulfide probe Compound 2, flow cytometry. The following applies: for Efficacy (% of max. 1): % change in cellular fluorescence relative to maximal response of Compound 1 (100%); for Efficacy (% of 1): % of the effect of compound 1, calculated span of dose-response curve, ± standard deviation. Put shortly:
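Human Jurkat cells treated with compounds plus disulfide probe Compound 2 (2.5 μM) for 14 h at 37 °C. Cytoplasmic release of pH-sensitive fluorophore Compound 3 quantified by flow cytometry. IC50 by non-linear regression; efficacy as % fluorescence change relative to Compound 1 maximum (100%).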

A further series concerns Jurkat lymphocytes. As for the experimental part: The effects of the compounds of the invention on human Juikat leukemia cells were evaluated using flow cytometry-based assays of potency, efficacy, and toxicity. […] Analysis of flow cytometry data by non-linear regression was used to determine IC50 values for potency with the efficacy expressed as a percentage. […] Dose-dependent effects on cellular viability after 48 h at 37° C. in culture were also measured by flow cytometry.
The # represents the compound number in accordance with Tables A, B, and C. Concentrations of compound stock solutions were determined by absorbance measurements at 280 nm. Efficacy was determined as % change in cellular fluorescence relative to the maximal response of Compound 1, defined as 100%. Potencies and efficacies in Jurkat lymphocytes were measured by flow cytometry after treatment of cells with the compounds listed and the fluorescent probe Compound 2 (2.5 μM) for 14 hours. Toxicity to this cell line was determined by flow cytometry analysis of light scattering and counterstaining with PI after treatment for 48 h at 37° C. in culture. […] N.D., not determined.

A short description of series [2]: Thermodynamic solubility in PBS (pH 7.4). The class given is physicochemical. From the text:
Values in parentheses represent 95% confidence intervals. N.D., not determined.
Measurements represent duplicate or more replicates, with active peptides subjected to multiple replicates. ND: not determined. The peptide was non-toxic and soluble in cell culture medium at this concentration.

Where [3] appears, read: read-out: Potency (EC50), Table 1, Jurkat lymphocytes, probe Compound 2 (2.5 μM), 14 hours, 95% confidence interval in neighbouring cell.
Where [4] appears, read: read-out: Potency, Table 2, EC50 ± standard deviation, Jurkat lymphocytes, disulfide-linked fluorescent probe (2.5 μM), 14 h.
[5] abbreviates: read-out: Toxicity, Table 3, IC50, Jurkat, 48 h at 37° C., footnote a: non-toxic and soluble in cell culture medium at this concentration.
Setting [6] is: phosphate buffered saline, pH 7.4, Table 3, PBS pH 7.4, 24 h at 22° C., read-out: Solubility.
Setting [7] is: phosphate buffered saline, pH 7.4, Table 1, PBS pH 7.4, 24 hours at 22° C., ±S.D., read-out: Solubility (aq.).

As for `CC(C)[C@H](NC(=O)[C@@H](NC(=O)[C@@H]1CCCN1C(=O)[C@@H]1CCCN1C(=O)[C@H](Cc1c[nH]c2ccccc12)NC(=O)[C@H](Cc1c[nH]c2ccccc12)NC(=O)[C@H](C)NC(=O)[C@H](Cc1c[nH]c2ccccc12)NC(=O)[C@H](Cc1ccc(O)cc1)NC(=O)C(C)(C)NC(=O)C(C)(C)NC(=O)C(C)(C)NC(=O)C(C)(C)N)C(C)C)C(N)=O` [Compound 52] (H-[Aib][Aib][Aib][Aib]YWAWWPPVV-NH2), the “Efficacy (% of max. 1)” value in series [1] (Table 1, Jurkat, 14 hours) came out at 87%. The “Efficacy (% of 1)” value in series [1] (Table 2, Jurkat, 14 h) is on record as 105 ± 19%. Further, the values for the EC50 in series [1] (setting [3]) and in series [1] (setting [4]) were 1900 nM and 3200 ± 1400 nM, respectively. Also, the IC50 in the series with Jurkat lymphocytes (setting [5]) is greater than 16000 nM. Also, the solubility thermodynamic at 24 h in series [2] (setting [6]) is 21 ± 1 µM (≈ 32.4 µg/mL).

`C#CC[C@H](NC(=O)[C@H](CCC(=O)O)NC(=O)[C@H](CCC(=O)O)NC(=O)CCNC(=O)CCCCN[C@H]1CC[C@@]2(C)C(=CC[C@H]3[C@@H]4CC[C@H]([C@H](C)CCCC(C)C)[C@@]4(C)CC[C@@H]32)C1)C(=O)NCCOCCOCCOCCC(=O)NCCOCCOCCOCCC(=O)NC(C)(C)C(=O)NC(C)(C)C(=O)NC(C)(C)C(=O)NC(C)(C)C(=O)N[C@@H](Cc1ccc(O)cc1)C(=O)N[C@@H](Cc1ccc(O)cc1)C(=O)N[C@@H](C)C(=O)N[C@@H](Cc1ccc(O)cc1)C(=O)N[C@@H](Cc1ccc(O)cc1)C(=O)N1CCC[C@H]1C(=O)N1CCC[C@H]1C(=O)N[C@H](C(=O)N[C@H](C(N)=O)C(C)C)C(C)C` [Compound 30, R = BEEZOOUUUUYYAYYPPVV-CONH2] ({Pentanoyl(5-NH-cholesteryl)-βAla}-EE[Pra][PEG3][PEG3][Aib][Aib][Aib][Aib]YYAYYPPVV-NH2) showed an EC50 in series [1] (14 h) of 30 nM. The molecule further showed an IC50 in the series on Jurkat lymphocytes (48 h) of 2000 nM. Further, the “Solubility (aq., μM)” value in series [2] (Table 1, PBS pH 7.4, 24 hours at 22° C., ±S.D.) was 3 ± 1 µM (≈ 8.32 µg/mL). In series [2] (setting [7]), the solubility thermodynamic at 24 h is less than 5 µM.

Take `CCCCCCCCCCCCCCCC(=O)NCCCCC(=O)NCCC(=O)N[C@@H](CCC(=O)O)C(=O)N[C@@H](CCC(=O)O)C(=O)NCCOCCOCCOCCC(=O)NCCOCCOCCOCCC(=O)NC(C)(C)C(=O)NC(C)(C)C(=O)NC(C)(C)C(=O)NC(C)(C)C(=O)N[C@@H](Cc1c[nH]c2ccccc12)C(=O)N[C@@H](Cc1c[nH]c2ccccc12)C(=O)N[C@@H](C)C(=O)N[C@@H](Cc1ccc(O)cc1)C(=O)N[C@@H](Cc1c[nH]c2ccccc12)C(=O)N1CCC[C@H]1C(=O)N1CCC[C@H]1C(=O)N[C@H](C(=O)N[C@@H](C)C(N)=O)C(C)C` [Compound 32, R′ - BEEOOUUUUWWAYWPPVA-CONH2] ({Palmitoyl-Ava-βAla}-EE[PEG3][PEG3][Aib][Aib][Aib][Aib]WWAYWPPVA-NH2): the “Efficacy (% of max. 1)” value in series [1] (Table 1, Jurkat, 14 hours) is given as 121%. Besides, the “Potency relative to Compound 26” value in series [1] (palmitic acid derivative vs cholesterylamine) is recorded as “sevenfold less potent”. The EC50 in series [1] (setting [3]) amounted to 700 nM. In the series with Jurkat lymphocytes (read-out: Toxicity (IC50), Table 1, Jurkat lymphocytes, 48 h at 37° C.), the IC50 was 16000 nM. In series [2] (PBS), the “Solubility in PBS relative to Compound 26” value is reported as “sixtyfold more soluble”. Moreover, the solubility at 24 h in series [2] (phosphate buffered saline, Table 1, PBS pH 7.4, 24 hours at 22° C., ±S.D., read-out: Solubility (aq.)) was 856 µM (≈ 2220 µg/mL).

In series [1] (14 h), `C#CC[C@H](NC(=O)[C@H](CCC(=O)O)NC(=O)[C@H](CCC(=O)O)NC(=O)CCNC(=O)CCNC(=O)O[C@H]1CC[C@@]2(C)C(=CC[C@H]3[C@@H]4CC[C@H]([C@H](C)CCCC(C)C)[C@@]4(C)CC[C@@H]32)C1)C(=O)NCCOCCOCCOCCC(=O)NCCOCCOCCOCCC(=O)NC(C)(C)C(=O)NC(C)(C)C(=O)NC(C)(C)C(=O)NC(C)(C)C(=O)N[C@@H](Cc1ccc(O)cc1)C(=O)N[C@@H](Cc1ccc(O)cc1)C(=O)N[C@@H](C)C(=O)N[C@@H](Cc1ccc(O)cc1)C(=O)N[C@@H](Cc1ccc(O)cc1)C(=O)N1CCC[C@H]1C(=O)N1CCC[C@H]1C(=O)N[C@H](C(=O)N[C@H](C(N)=O)C(C)C)C(C)C` [Compound 38, R″ = BEEZOOUUUUYYAYYPPVV-CONH2] ({Cholesteryloxycarbonyl-βAla-βAla}-EE[Pra][PEG3][PEG3][Aib][Aib][Aib][Aib]YYAYYPPVV-NH2) showed an EC50 of 40 nM and an IC50 of 40 nM. Also, the “Selectivity for disruption of endosomes over toxicity to cells in culture” value in series [1] (Jurkat, toxicity after 48 hours) is reported as “greater than hundredfold”. Further, the IC50 with Jurkat lymphocytes (48 h) is 8000 nM. The solubility thermodynamic at 24 h in series [2] (setting [7]) came out at 1060 ± 19 µM (≈ 2950 µg/mL).

`CC(C)CCC[C@@H](C)[C@H]1CC[C@H]2[C@@H]3CC=C4C[C@@H](NCCCCC(=O)NCCC(=O)N[C@@H](CCC(=O)O)C(=O)N[C@@H](CCC(=O)O)C(=O)NCCCCCC(=O)NCCCCCC(=O)NC(C)(C)C(=O)NC(C)(C)C(=O)NC(C)(C)C(=O)NC(C)(C)C(=O)N[C@@H](Cc5ccc(O)cc5)C(=O)N[C@@H](Cc5ccc(O)cc5)C(=O)N[C@@H](C)C(=O)N[C@@H](Cc5ccc(O)cc5)C(=O)N[C@@H](Cc5ccc(O)cc5)C(=O)N5CCC[C@H]5C(=O)N5CCC[C@H]5C(=O)N[C@H](C(=O)N[C@H](C(N)=O)C(C)C)C(C)C)CC[C@]4(C)[C@H]3CC[C@]12C` [Compound 25, R = BEEXXUUUUYYAYYPPVV-CONH2] ({Pentanoyl(5-NH-cholesteryl)-βAla}-EE[Ahx][Ahx][Aib][Aib][Aib][Aib]YYAYYPPVV-NH2) came in with an EC50 in series [1] (14 h) of 90 nM. Moreover, the IC50 with Jurkat lymphocytes (48 h) worked out at 9000 nM. Besides, in series [2] (setting [7]), the solubility thermodynamic at 24 h amounted to 22 ± 1 µM (≈ 54.9 µg/mL).

`CC(C)[C@H](NC(=O)[C@@H](NC(=O)[C@@H]1CCCN1C(=O)[C@@H]1CCCN1C(=O)[C@H](Cc1ccc(O)cc1)NC(=O)[C@H](Cc1c[nH]c2ccccc12)NC(=O)[C@H](C)NC(=O)[C@H](Cc1c[nH]c2ccccc12)NC(=O)[C@H](Cc1c[nH]c2ccccc12)NC(=O)[C@H](C)NC(=O)[C@H](Cc1c[nH]c2ccccc12)NC(=O)[C@H](Cc1c[nH]c2ccccc12)NC(=O)C(C)(C)NC(=O)C(C)(C)NC(=O)C(C)(C)NC(=O)C(C)(C)N)C(C)C)C(N)=O` [Compound 79] (H-[Aib][Aib][Aib][Aib]WWAWWAWYPPVV-NH2): in series [1] (Table 2, Jurkat, 14 h), the “Efficacy (% of 1)” value was 86 ± 5%. Besides, in series [1] (setting [4]), the EC50 stood at 220 ± 60 nM. Moreover, in the series with Jurkat lymphocytes (setting [5]), the IC50 was greater than 16000 nM. The solubility thermodynamic at 24 h in series [2] (setting [6]) stood at 2 ± 1 µM (≈ 3.97 µg/mL).

Regarding `CC(C)[C@H](NC(=O)[C@@H](NC(=O)[C@@H]1CCCN1C(=O)[C@@H]1CCCN1C(=O)[C@H](Cc1c[nH]c2ccccc12)NC(=O)[C@H](Cc1c[nH]c2ccccc12)NC(=O)[C@H](C)NC(=O)[C@H](Cc1ccc(O)cc1)NC(=O)[C@H](Cc1c[nH]c2ccccc12)NC(=O)C(C)(C)NC(=O)C(C)(C)NC(=O)C(C)(C)NC(=O)C(C)(C)N)C(C)C)C(N)=O` [Compound 53] (H-[Aib][Aib][Aib][Aib]WYAWWPPVV-NH2), in series [1] (Table 1, Jurkat, 14 hours), the “Efficacy (% of max. 1)” value came out at 104%. Also, the “Efficacy (% of 1)” value in series [1] (Table 2, Jurkat, 14 h) is listed as 96 ± 12%. Further, the EC50 in series [1] (setting [3]) was determined as 7100 nM; in series [1] (setting [4]) it was 6700 ± 800 nM. Moreover, the IC50 with Jurkat lymphocytes (setting [5]) is greater than 16000 nM. Further, in series [2] (setting [6]), the solubility thermodynamic at 24 h is 29 ± 3 µM (≈ 44.7 µg/mL).

`CC(C)CCC[C@@H](C)[C@H]1CC[C@H]2[C@@H]3CC=C4C[C@@H](NCCCCC(=O)NCCC(=O)N[C@@H](CCC(=O)O)C(=O)N[C@@H](CCC(=O)O)C(=O)NCCCCCC(=O)N[C@@H](C)C(=O)N[C@@H](C)C(=O)N[C@@H](C)C(=O)N[C@@H](Cc5c[nH]c6ccccc56)C(=O)N[C@@H](Cc5c[nH]c6ccccc56)C(=O)N[C@@H](C)C(=O)N[C@@H](Cc5ccc(O)cc5)C(=O)N[C@@H](Cc5c[nH]c6ccccc56)C(=O)N5CCC[C@H]5C(=O)N5CCC[C@H]5C(=O)N[C@H](C(=O)N[C@@H](C)C(N)=O)C(C)C)CC[C@]4(C)[C@H]3CC[C@]12C` [Compound 7, R = BEEXAAAWWAYWPPVA-CONH2] ({Pentanoyl(5-NH-cholesteryl)-βAla}-EE[Ahx]AAAWWAYWPPVA-NH2) registered an EC50 in series [1] (14 h) of 1000 nM. This molecule also came in with an IC50 with Jurkat lymphocytes (48 h) of 16000 nM.

The solubility is the concentration that dissolves in the medium under given conditions.

The values above are taken from US10766928B2, “Targeted conformationally-constrained kinked endosomal disrupting peptides” (priority 2012, dated 2020).
